Laboratory results from US20180353445A1, “METHODS AND COMPOSITIONS RELATING TO PROTEASOME INHIBITOR RESISTANCE” (Whitehead Institute for Biomedical Research, priority 2017, published 2018).
“Also recorded” adds a separate entry of the source.

What was measured:
Assay type in all cases: cell-based, human
HepG2 cells = test: RNA-seq gene expression profiling, PSMD2 knockdown and control cells; conditions: control cells
Procedure: FIGS. 3A-3E: Inhibition of bortezomib-mediated transcriptional responses in PSMD2 knockdown cells. RNA-seq gene expression profiling was conducted on cells that harbor two different shRNAs targeting PSMD2 (PSMD2-1, PSMD2-2) and on control cells (shLacZ). The effects of reducing PSMD2 levels on gene expression were highly correlated in both basal conditions (Pearson's r=0.99) and following bortezomib treatment (Pearson's r=0.94). […] Enrichment was calculated for the indicated gene sets and is presented as a normalized enrichment score (NES). […]
Gene expression analysis—RNA was extracted from triplicate samples and RNA libraries were prepared for sequencing by NEBNext Ultra RNA Library Prep Kit for Illumina (New England BioLabs, Ipswich, Mass.), including the removal of large and small RNA, synthesis of cDNA, and construction of cDNA libraries. […] Libraries were sequenced using Illumina HiSeq 2500, with paired-end 100 bp reads, Paired-end reads were aligned to UCSC human transcriptome 19 (hg19) using TopHat (Bowtie v2.0.9). Alignment quality and read distribute was assessed via SAMtools (v0.1.19) (Li et al., 2009). […] RNA sequencing data have been deposited in the NCBI Sequence Read Archive under accession number: PRJNA281613, […]

T47D cells = test: Competition co-culture of TurboRFP PSMD2 shRNA and GFP control shRNA T47D cells, FACS/microscopy; conditions: 5 nM, 48 hours
Procedure: We created two cell lines—one line that expresses red fluorescent protein (turboRFP) and the doxycycline-inducible PSMD2-targeting shRNA and another line that expresses green fluorescent protein (GFP) and a doxycycline-inducible control shRNA (FIG. 6A). First, we induced shRNA expression with doxycycline for 48 hours. After recovery, we mixed shPSMD2-RFP and shControl-GFP cells at different ratios (either 1:1, 1:2, 1:5 or 1:10), adding the cells with reduced PSMD2 as the minority subpopulation. Twenty-four hours after plating, we treated these mixed populations of cells for 48 hours with increasing concentrations of bortezomib (5, 7.5 or 10 nM). We allowed the cells to recover in the absence of bortezomib and then we quantified the red and green cells by FACS analysis (FIG. 6A) and captured representative images by fluorescence microscopy (FIG. 6B),
The experiment described in Example 10 was repeated with minor differences using a panel of different proteasome inhibitors: MLN2238, MLN9708, and oprozomib T47D cells harboring a doxycycline inducible control shRNA (GFP) or a doxycycline-inducible PSMD2 shRNA (TurboRFP) were incubated with doxycycline for 3 days. Cells were collected, counted, and plated at a 1:10 ratio of TurboRFP-expressing PSMD2 shRNA cells/GFP expression control shRNA cells in the absence of Dox. Proteasome inhibitors were added at the specified concentrations and cells were maintained in culture. Cells were allowed to recover in the absence of the proteasome inhibitor and then analyzed by FACS (FIG. 8B, top) or visualized by microscopy (FIG. 8B, bottom). In the absence of proteasome inhibitors, the initial plating ratio of these cells (1:10) was maintained over the duration of the experiment (FIG. 8B). […]
Visualization and FACS analysis of GFP/RFP levels—cells were trypsinized in 100 μL Accumax® solution and further diluted into 100 μl PBSx1. The number of cells with red or areen fluorescent proteins was measured by MACSQuant® VYB according to manufactures protocol. […]

MCF7 and HEK293 cells = test: Cell viability with glucose or galactose as the carbon source; conditions: 10 mM glucose or 10 mM galactose
Procedure: Cells were treated with increasing concentrations of elesclomol in the presence of either Glucose or Galactose as the carbon source (FIG. 40A). The presence of Galactose will induce a mitochondrial dependent metabolism (FIGS. 40B-40C, Gohil et al., Nature Biotechnology 28, 249-255 (2010)).
The sensitivity of cells to different chemical isoforms of elesclomol was also assessed. […] Removing even one substantially impairs the ability of the molecule to induce toxicity (FIG. 41B).
Cell culture methods—147D, Lo19S T47D, K562 and 293T-HS cells were cultured in RPMI-1640 medium supplemented with 10% fetal bovine serum; HEK293, HEK293T and MCF-7 cells were cultured in Dulbecco's modified Eagle's medium supplemented with 10% fetal bovine serum. For the glucose, galactose experiments media lacking glucose was supplemented with dialyzed serum and either 10 mM Glucose or 10 mM galactose.
Cell viability—where indicated relative cell number following different drug treatment was conducted by plating cells at 1000 cells/well in 384 well plates. Indicated concentrations of compounds were added 24 hour after plating at least in triplicate for each condition. Viability was measured 72 hours after drug addition using cell titer-glo (Promega) according to manufactures protocol. […]

SMILES | transcriptional response (HepG2 cells) | shift of surviving population toward PSMD2 shRNA cells (T47D cells) | sensitivity of cells in galactose (mitochondrial metabolism, Hi-OXPHOS) versus glucose (glycolytic) (MCF7 and HEK293 cells)
CC(C)C[C@H](NC(=O)[C@H](Cc1ccccc1)NC(=O)c1cnccn1)B(O)O [bortezomib] | sharp increase in stress-response transcripts | substantially shifted the populations of surviving cells | –
CN(NC(=O)CC(=O)NN(C)C(=S)c1ccccc1)C(=S)c1ccccc1 [elesclomol] | – | – | much more sensitive; also recorded: toxicity is enhanced
